ChEMBL document CHEMBL2413021, “Regioselective synthesis of 6-aryl-benzo[h][1,2,4]-triazolo[5,1-b]quinazoline-7,8-diones as potent antitumoral agents” (Bioorg Med Chem Lett, 2013)

What was measured:
SGC-7901 = test: Cytotoxicity against human SGC7901 cells after 48 hrs by MTT assay; format: functional, cell-based; settings: SGC-7901, 48 h
HepG2 = test: Cytotoxicity against human HepG2 cells after 48 hrs by MTT assay; format: functional, cell-based; settings: HepG2, 48 h

| SMILES | IC50 (SGC-7901) [µM] | IC50 (HepG2) [µM] |
| --- | --- | --- |
| COc1cccc2c1C(=O)c1c(O)c3c(c(O)c1C2=O)C[C@@](O)(C(=O)CO)C[C@@H]3O[C@H]1C[C@H](N)[C@H](O)[C@H](C)O1 [DOXORUBICIN] | 5.72 | 1.02 |
| O=C1C(=O)c2c(nc3ncnn3c2-c2ccc(Cl)cc2Cl)-c2ccccc21 | 1.83 | 2.99 |
| COc1cc(-c2c3c(nc4ncnn24)-c2ccccc2C(=O)C3=O)cc(OC)c1OC | 59.2 | 17.9 |
| O=C1C(=O)c2c(nc3ncnn3c2-c2cccs2)-c2ccccc21 | 1.45 | 2.13 |
| O=C1C(=O)c2c(nc3ncnn3c2-c2ccc(F)cc2)-c2ccccc21 | 6.12 | 7.85 |
| O=C1C(=O)c2c(nc3ncnn3c2-c2cccc([N+](=O)[O-])c2)-c2ccccc21 | 9.88 | 15.3 |
| O=C1C(=O)c2c(nc3ncnn3c2-c2ccc([N+](=O)[O-])cc2)-c2ccccc21 | 2.65 | 4.74 |
| O=C1C(=O)c2c(nc3ncnn3c2-c2ccc(Cl)cc2)-c2ccccc21 | 34.9 | 24.9 |
| COc1ccc(-c2c3c(nc4ncnn24)-c2ccccc2C(=O)C3=O)cc1 | 1.31 | 1.71 |
| O=C1C(=O)c2c(nc3ncnn3c2-c2ccccc2)-c2ccccc21 | 2.16 | 3.45 |
| Cc1ccc(-c2c3c(nc4ncnn24)-c2ccccc2C(=O)C3=O)cc1 | 1.71 | 1.19 |
| Clc1ccc(-c2c3c(nc4ncnn24)c2ccccc2c2nc4ccccc4nc23)cc1 | > 200 | > 200 |
